Experimental data: patent publication US10975042B2, “Method for purifying an amino acid-n-carboxy anhydride” (SHIN-ETSU CHEMICAL CO., LTD., priority 2018, dated 2021)

What was measured:
[1] = Long-term storage stability of NCA, purity by DSC; assay type: physicochemical; settings: DSC
Experimental: In Examples and Comparative Examples, the purity of each NCA was measured using differential scanning calorimeter (DSC) in accordance with 2.52 thermal analysis method of The Japanese Pharmacopoeia, 17th ed. (2.4.4. measurement of purity). The measurement was performed using Thermo plus EVO DSC8230 (manufactured by Rigalu Corporation) as a measurement apparatus with the sample amount of 1 mg at a temperature increasing rate of 1° C./minute. Incidentally, it is conceived that precise measurement cannot be guaranteed unless the purity is 98 mol % or more according to 2.52 thermal analysis method of The Japanese Pharmacopoeia, 17th ed. (2.4.4. measurement of purity).
Each purified NCA was evaluated for long-term storage stability. […] Regarding the conditions of −20±5° C., the results of purity measured by DSC at after a half year, after 1 year, and after 2 years are shown. Regarding the conditions of 0 to 5° C., the results of purity measured by DSC at after 1 month, 2 months, and a half year are shown. As a comparison, commercially available NCA shown by the general formula (A) (manufactured by Isochem), the purity of which is more than 98 mol % based on the DSC measurement, was evaluated and shown as Comparison 1. This NCA has a residual chlorine concentration of 0.030 mass % and belongs to a lot with extremely low residual chlorine concentration in commercially available NCAs.

[2] = Solubility of NCA to good solvent and poor solvent, visual observation; assay type: physicochemical
Source text: The method to determine that the solvent is a good solvent for NCA includes a method of adding a good solvent to NCA with stirring, followed by visual observation to confirm that the NCA has been dissolved without forming turbidity, but is not particularly limited if complete dissolution can be determined by the method.
The method to determine that the solvent is a poor solvent for NCA is not particularly limited if total insolubility can be confirmed, including a method of adding a poor solvent to NCA with stirring, followed by confirming that the NCA is not dissolved at all and turbidity is not observed by visual inspection.
On the other hand, in order to determine the solubility of NCA to n-hexane, which is a poor solvent, 0.2 g of the purified NCA shown by the structural formula (A) was tried to be dissolved in 2.0 g of n-hexane.
[…] On the other hand, as a method to determine the solubility to a poor solvent, 2.0 g of n-hexane was added to 0.2 g of each NCA after purification.

[3] = initial value of storage test at 0 to 5° C.
[4] = initial value of storage test at −20±5° C.

## CC(C)(C)OC(=O)CCC1CC(=O)OC1=O (stereo not shown) [(A)]
[1]; [3]
  Purity after purification: 98.93 mol %
[1]; [4]
  Purity after purification: 98.93 mol %
[1]; storage at 0 to 5° C.
  Purity after 1 month from purification: 98.93 mol %
  Purity after 2 months from purification: 98.92 mol %
  Purity after a half year from purification: 98.90 mol %
[1]; storage at −20±5° C.
  Purity after 1 year from purification: 98.92 mol %
  Purity after 2 years from purification: 98.90 mol %
  Purity after a half year from purification: 98.94 mol %
[2]; 0.2 g purified NCA in 1.0 g ethyl acetate
  solubility of NCA to ethyl acetate (good solvent), purified NCA: undissolved impurity was not determined visually
[2]; 0.2 g purified NCA in 2.0 g n-hexane
  solubility of NCA to n-hexane (poor solvent), purified NCA: dissolution was not determined visually
[2]; NCA before purification in ethyl acetate
  solubility of NCA to ethyl acetate (good solvent), NCA before purification: undissolved impurities were determined visually

## O=C1NC(Cc2ccccc2)C(=O)O1 (stereo not shown) [(N)]
[1]; [3]
  Purity after purification: 98.88 mol %
[1]; [4]
  Purity after purification: 98.88 mol %
[1]; storage at 0 to 5° C.
  Purity after 1 month from purification: 98.88 mol %
  Purity after 2 months from purification: 98.86 mol %
  Purity after a half year from purification: 98.86 mol %
[1]; storage at −20±5° C.
  Purity after 1 year from purification: 98.86 mol %
  Purity after 2 years from purification: 98.85 mol %
  Purity after a half year from purification: 98.85 mol %
